# Assay results: patent US10457710B2, “Antimicrobial peptides, their variants and uses” (priority 2015, dated 2019)
# Key:
# Assay in all cases: Radial diffusion assay (RDA)
# Format in all cases: cell-based
# Settings in all cases: Peptides 50 μg, Gentamycin 5 μg; diameter including the wells
# [1] = test system: Pseudomonas aeruginosa (ATCC 27853)
# Experimental: (§1) The radial diffusion assay (RDA) was carried out as described by Andersen et al. (2010). Briefly, 30 ml of 1/10 Muller-Hinton broth (MHB) supplemented with 1% agarose and 5.0×10^5 CFU/ml S. aureus or E. coli or K. pneumoniae, P. aeruginosa cells was poured into a single-well omnitray (Nunc) and overlaid with a TSP 96-well plate. […] The peptides were also tested against Fusarium oxysporum and Verticillium dahliae, for which ⅓ potato dextrose agarose was used. To test the synergistic effect of peptides, each peptide was mixed in equimolar concentrations. Mix1 (met1-12), Mix2 (met3, 4 and 5), Mix3 (met 8, 9 and 10), Mix 4 (met11, 12) and Mix5 (8, 9, 10, 11, 12) were prepared and tested against E. coli and S. aureus. Gentamicin and vancomycin were included as positive controls for bacteria and amphotericin B was used as the control for fungi.
# [2] = test system: Escherichia coli (ATCC 25922)
# Experimental: as §1
# [3] = test system: Staphylococcus aureus (ATCC 25923)
# Experimental: as §1
# [4] = test system: Klebsiella pneumoniae (ATCC 10031)
# Experimental: as §1
substance,measurement,setting,value
Gentamicin [reference compound],"Inhibition zone, Pseudomonas aeruginosa",[1],24 mm
same,"Inhibition zone, Escherichia coli",[2],22 mm
same,"Inhibition zone, Staphylococcus aureus",[3],24 mm
same,"Inhibition zone, Klebsiella pneumoniae",[4],22 mm
